{"source": "patent US20060009478A1", "about": "“Methods for the treatment of back pain” (priority 2003, published 2006)", "key": {"[1]": {"tested_on": "patients with moderate to severe chronic pain due to osteoarthritis of the hip or knee", "assay": "Quality of analgesia, 3-week osteoarthritis study", "assay_type": "in vivo, human", "description": "Quality of Analgesia was assessed weekly at clinic visits. The patient was prompted with the question, “How would you rate the quality of your pain relief at this time?”, and responses were selected from poor, fair, good, very good, and excellent.\nThe global assessment, quality of analgesia, and pain control, recorded at the end of each week, were summarized in terms of category proportions.\nFor secondary analysis of data, pain intensity changes, SF-12, and WOMAC were analyzed with the ANOVA methods as described above. Within treatment arms, weeks were compared in pairwise fashion using paired-sample methods. The global assessments, quality of analgesia ratings, and pain control was analyzed at each week, globally and in pairwise fashion, using the Cocharan-Mantel-Haenszel row mean scores (CMH-RMS) test, using equally spaced scores. An “observed data” analysis, without any data imputation, was conducted on pain intensity changes, global assessments, quality of analgesia ratings, pain control, SF-12, and WOMAC using the same analysis methods described previously."}, "[2]": {"tested_on": "patients with moderate to severe chronic pain due to osteoarthritis of the hip or knee", "assay": "Pain intensity (daily diary, 11-point numerical scale), 3-week osteoarthritis study", "assay_type": "in vivo, human", "conditions": "ITT, LOCF, average of last two days of dosing week", "description": "A multicenter, randomized, double-blind, active- and placebo-controlled, dose escalation, clinical study was designed and conducted. […] During a 4- to 7-day washout period, patients stopped taking all of their pain medication other than acetaminophen (500 mg every 4-6 hours PRN (a maximum of 5 caplets per day)).\nPain Intensity was assessed by prompting the patient with the question, “How would you rate your overall pain intensity at this time?”, and the PI score was recorded in the clinic. Pain Intensity was also assessed by prompting the patient with the question, “How would you rate your overall pain intensity during the past 24 hours?”, and a daily PI diary score was recorded by the patient at bedtime. For both Pain Intensity prompts, the response was scored on an 11-point numerical scale (0=no pain and 10=severe pain).\nFor the efficacy analysis, endpoints were represented and analyzed by week. Missing efficacy data was imputed across weeks using the last-observation-carried-forward (LOCF) method. Thus, the primary procedure for the analysis of efficacy data was based on a LOCF approach.\nThe daily pain intensity ratings were summarized as follows. For each week, the pain intensity recorded on the last two full days of dosing within the week, restricted to Day 5 or later, was averaged. If only a single observation was available, it was used; otherwise, the endpoint was not defined. The pain intensity averages were represented as both (1) a change from baseline and (2) a percent change from baseline. The baseline value was defined as the average pain intensity over the last two values recorded during the baseline period; if necessary, a single value was used.\nFor primary analysis of data, the primary efficacy endpoint was the percent change from baseline in pain intensity at Week 3. Percent change in pain intensity was analyzed using ANOVA methods. The ANOVA model included factors for treatment, sex, and their interaction. Additional covariates could be added to the model for exploratory purposes. Pairwise treatment group comparisons were made using contrasts within the ANOVA framework. Testing employed Type III sums of squares. If the assumptions of the parametric tests were not valid, non-parametric tests were used."}, "[3]": {"conditions": "ITT (N = 102 per active group), LOCF"}, "[4]": {"conditions": "11-point scale 0=no pain, 10=severe pain"}}, "data": [{"molecule": "COc1ccc2c3c1O[C@H]1C(=O)CC[C@@]4(O)[C@@H](C2)N(C)CC[C@]314", "note": "[OXY QID, oxycodone]", "values": [{"measurement": "Quality of analgesia Week 1: EXCELLENT (4), number (%) of patients", "setting": "[1]; [3]", "value": "3 (2.9%)"}, {"measurement": "Quality of analgesia Week 1: FAIR (1), number (%) of patients", "setting": "[1]; [3]", "value": "31 (30.4%)"}, {"measurement": "Quality of analgesia Week 1: GOOD (2), number (%) of patients", "setting": "[1]; [3]", "value": "18 (37.3%)"}, {"measurement": "Quality of analgesia Week 1: POOR (0), number (%) of patients", "setting": "[1]; [3]", "value": "18 (17.6%)"}, {"measurement": "Quality of analgesia Week 1: VERY GOOD (3), number (%) of patients", "setting": "[1]; [3]", "value": "8 (7.8%)"}, {"measurement": "Quality of analgesia Week 2: EXCELLENT (4), number (%) of patients", "setting": "[1]; [3]", "value": "4 (3.9%)"}, {"measurement": "Quality of analgesia Week 2: FAIR (1), number (%) of patients", "setting": "[1]; [3]", "value": "29 (28.4%)"}, {"measurement": "Quality of analgesia Week 2: GOOD (2), number (%) of patients", "setting": "[1]; [3]", "value": "30 (29.4%)"}, {"measurement": "Quality of analgesia Week 2: POOR (0), number (%) of patients", "setting": "[1]; [3]", "value": "19 (18.6%)"}, {"measurement": "Quality of analgesia Week 2: VERY GOOD (3), number (%) of patients", "setting": "[1]; [3]", "value": "16 (15.7%)"}, {"measurement": "Quality of analgesia Week 3: EXCELLENT (4), number (%) of patients", "setting": "[1]; [3]", "value": "5 (4.9%)"}, {"measurement": "Quality of analgesia Week 3: FAIR (1), number (%) of patients", "setting": "[1]; [3]", "value": "23 (22.5%)"}, {"measurement": "Quality of analgesia Week 3: GOOD (2), number (%) of patients", "setting": "[1]; [3]", "value": "32 (31.4%)"}, {"measurement": "Quality of analgesia Week 3: POOR (0), number (%) of patients", "setting": "[1]; [3]", "value": "23 (22.5%)"}, {"measurement": "Quality of analgesia Week 3: VERY GOOD (3), number (%) of patients", "setting": "[1]; [3]", "value": "15 (14.7%)"}, {"measurement": "Patients reporting a quality of analgesia assessment of very good or excellent at Week 3", "setting": "[1]; Week 3", "value": 19.6, "unit": "%"}, {"measurement": "Pain intensity, actual value at Week 1, mean", "setting": "[2]; FEMALE, 11-point scale", "value": 6.2}, {"measurement": "Pain intensity, actual value at Week 1, median", "setting": "[2]; FEMALE, 11-point scale", "value": 6.3}, {"measurement": "Pain intensity, actual value at Week 2, mean", "setting": "[2]; FEMALE, 11-point scale", "value": 5.9}, {"measurement": "Pain intensity, actual value at Week 2, median", "setting": "[2]; FEMALE, 11-point scale", "value": 6.3}, {"measurement": "Pain intensity, actual value at Week 3, mean", "setting": "[2]; FEMALE, 11-point scale", "value": 5.9}, {"measurement": "Pain intensity, actual value at Week 3, median", "setting": "[2]; FEMALE, 11-point scale", "value": 6.0}, {"measurement": "Pain intensity, percent change from baseline to Week 1, mean", "setting": "[2]", "value": "−18.4", "unit": "%"}, {"measurement": "Pain intensity, percent change from baseline to Week 1, median", "setting": "[2]", "value": "−16.7", "unit": "%"}, {"measurement": "Pain intensity, percent change from baseline to Week 2, mean", "setting": "[2]", "value": "−22.9", "unit": "%"}, {"measurement": "Pain intensity, percent change from baseline to Week 2, median", "setting": "[2]", "value": "−20.0", "unit": "%"}, {"measurement": "Pain intensity, percent change from baseline to Week 3, median", "setting": "[2]", "value": "−20.0", "unit": "%"}, {"measurement": "Pain intensity, actual value at Week 1, mean", "setting": "[2]; [4]", "value": 6.1}, {"measurement": "Pain intensity, actual value at Week 1, median", "setting": "[2]; [4]", "value": 6.0}, {"measurement": "Pain intensity, actual value at Week 2, mean", "setting": "[2]; [4]", "value": 5.8}, {"measurement": "Pain intensity, actual value at Week 2, median", "setting": "[2]; [4]", "value": 6.0}, {"measurement": "Pain intensity, actual value at Week 3, mean", "setting": "[2]; [4]", "value": 5.6}, {"measurement": "Pain intensity, actual value at Week 3, median", "setting": "[2]; [4]", "value": 5.5}, {"measurement": "Pain intensity, percent change from baseline to Week 3, mean", "setting": "[2]; primary efficacy endpoint", "value": "−24.6", "unit": "%"}, {"measurement": "Pain intensity, actual value at Week 2, mean", "setting": "[2]; MALE, 11-point scale", "value": 5.5}, {"measurement": "Pain intensity, actual value at Week 2, median", "setting": "[2]; MALE, 11-point scale", "value": 5.5}, {"measurement": "Pain intensity, actual value at Week 3, mean", "setting": "[2]; MALE, 11-point scale", "value": 5.0}, {"measurement": "Pain intensity, actual value at Week 3, median", "setting": "[2]; MALE, 11-point scale", "value": 4.5}, {"measurement": "Pain intensity, actual value at Week 1, mean", "setting": "[2]; males, 11-point scale", "value": 5.9}, {"measurement": "Pain intensity, actual value at Week 1, median", "setting": "[2]; males, 11-point scale", "value": 6.0}]}]}
